Measurements taken from US5962476A, “Azolylamine derivative” (Kaken Pharmaceutical Co., Ltd., priority 1993, dated 1999).
≈ marks a conversion by molar mass, not a printed value. Where two headings read alike, the source gives them in different places.

Key:
[1] = system: Cryptococcus neoformans NI-7496; assay: Minimum inhibitory concentration (MIC), agar dilution method on Sabouraud's agar medium, 30° C. for 48 hours; assay type: cell-based; conditions: read-out: Minimum inhibitory concentration (MIC), Cr.n.
Procedure: (§1) MIC of a test compound against Candida albicans ATCC-10259 was determined by the both dilution method employing synthetic amino acid medium (SAAMF medium). Namely, to 3 μl of twofold dilution series of solution containing the test compound was added 300 μl of SAAMF medium inoculated with the fungus at the final concentration of 1×10^3 cells/ml. […] MIC of a test compound against the fungus other than the Candida albicans was determined by the agar dilution method employing Sabouraud's agar medium. That is to say, a test compound was dissolved in dimethyl sulfoxide to give a solution containing the test compound in the concentration of 10 mg/ml. Further, thus obtained solution was diluted with dimethyl sulfoxide according to twofold dilution series and 0.1 ml of the diluted solution was taken into a sterile shale. After 9.9 ml of Sabouraud's agar medium was added thereto, the mixture was sufficiently mixed to give a drug-added plate. The plate was inoculated with 5 μl of a fungus suspension at 10^6 cells/ml by Microplanter (Sakuma Seisakusho Co., Ltd.). As to Aspergillus fumigatus NI-5561 and Cryptococcus neoformans NI-7496, a plate was incubated at 30° C. for 48 hours. As to Trichophyton mentagrophytes KD-01, a plate was incubated at 30° C. for 7 days. […] Clotrimazole and fluconazole were used as comparative control compounds.
Cryptococcus neoformans NI-7496

[2] = system: Candida albicans ATCC-10259; assay: Minimum inhibitory concentration (MIC), dilution method in SAAMF medium, 35° C. for 2 days; assay type: cell-based; conditions: ATCC10259, 48 h, read-out: Minimum inhibitory concentration (MIC), C.a.
Procedure: as §1
Candida albicans ATCC 10259

[3] = system: Aspergillus fumigatus NI-5561; assay: Minimum inhibitory concentration (MIC), agar dilution method on Sabouraud's agar medium, 30° C. for 48 hours; assay type: cell-based; conditions: read-out: Minimum inhibitory concentration (MIC), A.f.
Procedure: as §1
Aspergillus fumigatus NI-5561

[4] = system: Trichophyton mentagrophytes KD-01; assay: Minimum inhibitory concentration (MIC), agar dilution method on Sabouraud's agar medium, 30° C. for 7 days; assay type: cell-based; conditions: KD01, 168 h, read-out: Minimum inhibitory concentration (MIC), T.m.
Procedure: as §1, with “compounds. |Trichophyton mentagrophytes KD-01 | T. m.” for “compounds.”

Candida albicans KC-36 = assay: Therapeutic effect on cutaneous candidiasis in guinea pigs; assay type: in vivo, male Hartley guinea pig; conditions: guinea pig, topical 1% solution, 0.2 ml once a day for 3 days from 2 days after infection
Procedure: Inhibitory ratio (%={1-(number of tissue specimens found fungi/total number
of tissue specimens)}×100
In the back of male Hartley guinea pig, weighing 400 to 500 g, a portion of skin was unhaired, to which […] of spore suspension of Candida albicans KC-36 (5×10^7 cells/ml) was dropped and the skin surface was infected by rubbing it with a glass rod. To facilitate the infection, prednisolone was subcutaneously administered at 30 mg/kg on one day before the infection, the day of infection and 4 days after the infection. […] The animal was killed by etherization 2 days after the last treatment and 10 tissue specimens of skin were cut out from the infected portion and incubated on CANDIDA GS AGAR `EIKEN` (EIKEN CHEMICAL CO., LTD. ) for 7 days. The inhibitory ratio was calculated according to the above-mentioned formula. Clotrimazole was employed as a control compound.

[5] = system: Trichophyton mentagrophytes KD-04; assay: Effect on trichophytosis in guinea pigs; assay type: in vivo, male Hartley guinea pig; conditions: guinea pig, topical 1% solution, 0.2 ml once a day for 10 days from 3 days after infection
Procedure: In the back of male Hartley guinea pig, weighing 400 to 500 g, a portion of skin was unhaired and rubbed lightly with sandpaper, to which 0.1 ml of microconidium suspension of Trichophyton mentagrophytes KD-04 (10^7 cells/ml) was dropped and the skin surface was infected by rubbing it with a glass rod. […] The animal was killed by etherization 2 days after the last treatment and 10 tissue specimens of skin were cut out from the infected portion and incubated on Sabouraud's agar medium for 7 days. Inhibitory ratio was calculated according to the following formula: […] of tissue specimens)}×100 The results are shown in Table 2. Clotrimazole was used as a control compound.

[6] = Acute toxicity test for mice; assay type: in vivo, male ICR mouse
Procedure: The compound of Example 1 was dissolved in polyethylene glycol 200 and the resultant solution was applied to a male ICR mouse of 5 weeks old by oral or subcutaneous administration.

[7] = NI7496, Cryptococcus neoformans NI-7496, Sabouraud's agar, 30° C., 48 hours
[8] = Candida albicans ATCC 10259, SAAMF medium, 35° C., 2 days
[9] = NI5561, Aspergillus fumigatus NI-5561, Sabouraud's agar, 30° C., 48 hours
[10] = Cryptococcus neoformans, NI7496, 48 h
[11] = Aspergillus fumigatus, NI5561, 48 h

Compound | MIC [1, 7] [µg/mL] | MIC [2, 8] [µg/mL] | MIC [3, 9] [µg/mL] | MIC [4] [µg/mL] | further results
C=C1CCN([C@H](C)[C@](O)(Cn2cncn2)c2ccc(F)cc2F)CC1 (racemic) [Example 2, (2RS,3RS)-2-(2,4-difluorophenyl)-3-(4-methylenepiperidino)-1-(1H-1,2,4-triazol-1-yl)butan-2-ol] | 0.1 (≈ 0.287 µM) | < 0.025 | 0.1 (≈ 0.287 µM) | 0.39 (≈ 1.12 µM) | –
C=C1CCN([C@H](C)[C@](O)(Cn2ccnc2)c2ccc(F)cc2F)CC1 [Example 4, (2R,3R)-2-(2,4-difluorophenyl)-3-(4-methylenepiperidino)-1-(1H-imidazol-1-yl)butan-2-ol] | < 0.025 | < 0.025 | 0.05 (≈ 0.144 µM) | < 0.025 | –
C[C@@H](N1CCC(=Cc2ccccc2)CC1)[C@](O)(Cn1cncn1)c1ccc(F)cc1F (racemic) [Example 10, (2RS,3RS)-2-(2,4-difluorophenyl)-3-(4-benzylidenepiperidino)-1-(1H-1,2,4-triazol-1-yl)butan-2-ol] | 0.025 (≈ 0.0589 µM) | < 0.025 | 0.1 (≈ 0.236 µM) | 0.39 (≈ 0.919 µM) | –
OC(Cn1cncn1)(Cn1cncn1)c1ccc(F)cc1F [Fluconazole, reference compound] | – | – | – | > 100 | MIC [1, 10]: 12.5 µg/mL (≈ 40.8 µM); MIC ([2]; Candida albicans): 0.39 µg/mL (≈ 1.27 µM); MIC [3, 11]: > 100 µg/mL
C=CC=C1CCN([C@H](C)[C@](O)(Cn2cncn2)c2ccc(F)cc2F)CC1 [Example 12, (2R,3R)-2-(2,4-difluorophenyl)-3-(4-propenylidenepiperidino)-1-(1H-1,2,4-triazol-1-yl)butan-2-ol] | 0.1 (≈ 0.267 µM) | < 0.025 | 0.2 (≈ 0.534 µM) | 0.78 (≈ 2.08 µM) | –
CC=C1CCN([C@H](C)[C@](O)(Cn2cncn2)c2ccc(F)cc2F)CC1 (racemic) [Example 8, (2RS,3RS)-2-(2,4-difluorophenyl)-3-(4-ethylidenepiperidino)-1-(1H-1,2,4-triazol-1-yl)butan-2-ol] | 0.1 (≈ 0.276 µM) | < 0.025 | 0.2 (≈ 0.552 µM) | 0.78 (≈ 2.15 µM) | –
Clc1ccccc1C(c1ccccc1)(c1ccccc1)n1ccnc1 [Clotrimazole, reference compound] | – | – | – | 0.39 (≈ 1.13 µM) | MIC [1, 10]: 0.2 µg/mL (≈ 0.58 µM); MIC ([2]; Candida albicans): 0.025 µg/mL (≈ 0.0725 µM); Inhibitory ratio (Candida albicans KC-36): 96%; Inhibitory ratio [5]: 20%; MIC [3, 11]: 0.78 µg/mL (≈ 2.26 µM)
C=C1CCN([C@H](C)[C@](O)(Cn2cncn2)c2ccc(F)cc2F)C1 [Example 14, (2R,3R)-2-(2,4-difluorophenyl)-3-(3-methylenepyrrolidino)-1-(1H-1,2,4-triazol-1-yl)butan-2-ol] | 0.39 (≈ 1.17 µM) | < 0.025 | 0.39 (≈ 1.17 µM) | 0.78 (≈ 2.33 µM) | –
C=C1CCN([C@@H](C)[C@@](O)(Cn2cncn2)c2ccc(F)cc2F)CC1 [Example 3, (2S,3S)-2-(2,4-difluorophenyl)-3-(4-methylenepiperidino)-1-(1H-1,2,4-triazol-1-yl)butan-2-ol] | 0.78 (≈ 2.24 µM) | 0.39 (≈ 1.12 µM) | > 100 | 50 (≈ 144 µM) | –
C=C1CCN([C@H](C)[C@](O)(Cn2cncn2)c2ccc(Cl)cc2)CC1 [Example 6, (2R,3R)-2-(4-chlorophenyl)-3-(4-methylenepiperidino)-1-(1H-1,2,4-triazol-1-yl)butan-2-ol] | 0.2 (≈ 0.577 µM) | < 0.0125 | 6.25 (≈ 18 µM) | 3.13 (≈ 9.02 µM) | –
C=C1CCN([C@H](C)[C@](O)(Cn2cncn2)c2ccc(Cl)cc2Cl)CC1 [Example 7, (2R,3R)-2-(2,4-dichlorophenyl)-3-(4-methylenepiperidino)-1-(1H-1,2,4-triazol-1-yl)butan-2-ol] | 0.05 (≈ 0.131 µM) | 0.025 (≈ 0.0656 µM) | 0.39 (≈ 1.02 µM) | 0.39 (≈ 1.02 µM) | –
C=C1CCN([C@H](C)[C@](O)(Cn2ccnc2)c2ccc(F)cc2F)CC1 (racemic) [Example 5, (2RS,3RS)-2-(2,4-difluorophenyl)-3-(4-methylenepiperidino)-1-(1H-imidazol-1-yl)butan-2-ol] | 0.025 (≈ 0.072 µM) | < 0.025 | 0.05 (≈ 0.144 µM) | 0.1 (≈ 0.288 µM) | –
C=C1CCCN([C@H](C)[C@](O)(Cn2cncn2)c2ccc(F)cc2F)C1 [Example 13, (2R,3R)-2-(2,4-difluorophenyl)-3-(3-methylenepiperidino)-1-(1H-1,2,4-triazol-1-yl)butan-2-ol] | 0.39 (≈ 1.12 µM) | 0.1 (≈ 0.287 µM) | 0.78 (≈ 2.24 µM) | 1.56 (≈ 4.48 µM) | –
C=C1CCN([C@H](C)[C@](O)(Cn2cncn2)c2ccc(F)cc2F)CC1 [Example 1, (2R,3R)-2-(2,4-difluorophenyl)-3-(4-methylenepiperidino)-1-(1H-1,2,4-triazol-1-yl)butan-2-ol] | 0.05 (≈ 0.144 µM) | < 0.025 | 0.05 (≈ 0.144 µM) | 0.39 (≈ 1.12 µM) | Inhibitory ratio (Candida albicans KC-36): 98%; Inhibitory ratio [5]: 98%; Number of died mice/number of tested mice ([6]; oral, 500 mg/kg): 0/3; Number of died mice/number of tested mice ([6]; oral, 1000 mg/kg): 0/3; Number of died mice/number of tested mice ([6]; subcutaneous, 125 mg/kg): 0/3; Number of died mice/number of tested mice ([6]; subcutaneous, 250 mg/kg): 0/3; Number of died mice/number of tested mice ([6]; subcutaneous, 500 mg/kg): 0/3; Number of died mice/number of tested mice ([6]; subcutaneous, 1000 mg/kg): 0/3
